Laboratory results published in ChEMBL document CHEMBL1201862, “PubChem BioAssay data set” (2004).
Active and inactive are the calls of the source.

Key:
Kallikrein-7 = Kallikrein-7 (Homo sapiens, UniProt P49862); assay: Fluorescence Intensity-based biochemical primary high throughput dose response assay to identify activators of kallikrein-7 (K7) zymogen.
[1] = target: DNA dC->dU-editing enzyme APOBEC-3G (Homo sapiens, UniProt Q9HC16); format: functional;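 also: Dose-response counterscreen measuring inhibition of APOBEC3G DNA deaminase activity, run while confirming APOBEC3A inhibitors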
[2] = target: DNA dC->dU-editing enzyme APOBEC-3A (Homo sapiens, UniProt P31941); assay: Dose Response confirmation of small molecule APOBEC3A DNA Deaminase Inhibitors via a fluorescence-based single-stranded DNA deaminase assay. [Related pubchem assays (depositor defined):AID493011, AID493024]; format: functional
Cytochrome P450 2C19 = Cytochrome P450 2C19 (Homo sapiens, UniProt P33261); assay: Cytochrome panel assay with activity outcomes. Panel member name: p450-cyp2c19 Compounds with AC50 equal or less than 10 uM are considered active; format: functional; conditions: read-out: AC50
Protein Tat = target: T1, Protein Tat (Human immunodeficiency virus type 1 group M subtype B (isolate HXB2)(HIV-1), UniProt P04608); format: functional;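 also: tat binding to TAR RNA read out by fluorescence polarization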
T1 sequence (P04608 whole entry): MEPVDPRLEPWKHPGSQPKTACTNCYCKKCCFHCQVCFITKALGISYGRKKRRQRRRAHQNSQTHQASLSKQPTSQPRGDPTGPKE

Aminopeptidase N = target: T2, Aminopeptidase N (Plasmodium falciparum FcB1/Columbia, UniProt O96935); assay: P. falciparum M1AAP inhibitors, biochemical, fluorogenic H-Leu-NHMec substrate, 1536-well (AID 1445); parameters: species or system Plasmodium falciparum 3D7, 3D7
T2 sequence (O96935 whole entry): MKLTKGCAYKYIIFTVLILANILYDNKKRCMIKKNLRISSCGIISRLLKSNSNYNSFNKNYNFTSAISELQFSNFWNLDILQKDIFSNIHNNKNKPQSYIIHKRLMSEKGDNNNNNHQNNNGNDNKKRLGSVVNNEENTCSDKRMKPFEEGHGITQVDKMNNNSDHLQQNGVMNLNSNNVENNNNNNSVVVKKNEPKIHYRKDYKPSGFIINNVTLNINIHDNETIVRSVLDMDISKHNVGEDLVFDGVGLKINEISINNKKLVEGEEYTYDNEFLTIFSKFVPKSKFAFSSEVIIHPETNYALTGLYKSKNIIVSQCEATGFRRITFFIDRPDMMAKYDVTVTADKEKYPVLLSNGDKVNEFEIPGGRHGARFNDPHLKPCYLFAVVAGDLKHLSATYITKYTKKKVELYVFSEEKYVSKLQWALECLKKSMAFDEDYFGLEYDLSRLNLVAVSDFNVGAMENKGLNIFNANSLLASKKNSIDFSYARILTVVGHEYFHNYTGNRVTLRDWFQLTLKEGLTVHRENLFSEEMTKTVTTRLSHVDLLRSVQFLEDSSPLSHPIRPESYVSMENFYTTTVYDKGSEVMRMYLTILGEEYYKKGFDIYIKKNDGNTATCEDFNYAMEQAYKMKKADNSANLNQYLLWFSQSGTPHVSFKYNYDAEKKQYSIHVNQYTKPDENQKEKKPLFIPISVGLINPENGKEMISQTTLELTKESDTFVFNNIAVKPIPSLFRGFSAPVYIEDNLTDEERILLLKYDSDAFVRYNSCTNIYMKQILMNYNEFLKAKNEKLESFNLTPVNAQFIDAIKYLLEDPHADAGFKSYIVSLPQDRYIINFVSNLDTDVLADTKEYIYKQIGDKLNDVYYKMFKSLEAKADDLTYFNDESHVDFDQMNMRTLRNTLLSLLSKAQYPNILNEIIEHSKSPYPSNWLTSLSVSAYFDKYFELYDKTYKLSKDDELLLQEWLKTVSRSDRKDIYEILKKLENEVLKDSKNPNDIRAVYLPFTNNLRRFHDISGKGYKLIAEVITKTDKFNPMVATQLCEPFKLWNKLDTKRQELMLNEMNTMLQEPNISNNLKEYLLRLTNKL

Nonstructural protein 1 = Nonstructural protein 1 (Influenza A virus, UniProt Q194T2); format: functional, Influenza A virus (A/California/07/2009(H1N1))
Prothrombin = Prothrombin (Homo sapiens, UniProt P00734); assay: Thrombin 1536 HTS Dose Response Confirmation. [Related pubchem assays: 1046 (Thrombin 1536 HTS; hits were confirmed in this assay)]; format: functional
Beta-galactosidase [3] = target: T3, Beta-galactosidase (Escherichia coli, UniProt Q8VNN2); assay: beta-galactosidase enzyme inhibitors and activators, dose response, artefact control for CCR6 antagonist project, biochemical, E. coli enzyme, set 3 (AID 504712); format: functional
H9c2 = assay: cells; format: functional, cell-based; conditions: Rattus norvegicus, H9c2, Myocardium;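 also: confirmatory concentration-response retest of ultra-high-throughput screening hits for modulation of myocardial damage; cell death induced by hydrogen peroxide oxidative stress; compound pretreatment for 60 min then peroxide exposure for 2 h; potency is for protecting the cells against peroxide damage rather than for killing them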
[4] = target: T4, Mannose-6-phosphate isomerase (Homo sapiens, UniProt P34949); assay: human PMI inhibitors, high substrate, primary screen, biochemical, fluorescence intensity, high mannose 6-phosphate (AID 1220)
T4 sequence (P34949 whole entry): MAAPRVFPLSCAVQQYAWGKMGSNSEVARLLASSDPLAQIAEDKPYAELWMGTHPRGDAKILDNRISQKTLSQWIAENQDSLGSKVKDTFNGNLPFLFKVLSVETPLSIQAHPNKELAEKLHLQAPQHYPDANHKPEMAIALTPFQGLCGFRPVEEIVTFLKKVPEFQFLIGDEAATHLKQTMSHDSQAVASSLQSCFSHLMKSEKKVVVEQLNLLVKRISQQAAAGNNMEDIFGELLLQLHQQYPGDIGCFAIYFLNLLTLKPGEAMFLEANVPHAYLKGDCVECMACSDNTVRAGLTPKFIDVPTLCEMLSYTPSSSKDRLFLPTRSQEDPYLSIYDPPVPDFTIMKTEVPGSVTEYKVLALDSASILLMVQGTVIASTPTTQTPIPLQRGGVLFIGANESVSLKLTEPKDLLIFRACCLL

[5] = Jurkat T cell cytotoxicity, dose response, cytotoxicity control for P. falciparum gametocyte viability project, luminescence (AID 1117277); format: functional, cell-based;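 also: potency reflects loss of cellular ATP meaning fewer viable cells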
[6] = P. falciparum late gametocyte killing, dose response, luminescence (AID 1117278); format: functional, cell-based;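 also: gametocytes exposed to compound for 24 hours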
Paired box protein Pax-8 = Paired box protein Pax-8 (Homo sapiens, UniProt Q06710); assay: inhibitors of PAX8-driven TPO luciferase reporter, dose response, RMG-I cells, cherry-pick (AID 687027); format: functional, cell-based;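 also: luciferase reporter driven by Pax8 target thyroperoxidase promoter measured by SteadyGlo luminescence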
[7] = NIH:OVCAR-3 ovarian cancer cell cytotoxicity, dose response, PAX8 inhibitor project, plate reader, dry powder samples (AID 743044); format: functional, cell-based
[8] = cytotoxicity in OVCAR8 ovarian cancer cells, dose response, PAX8 project, cell-based, plate reader, dry powder samples (AID 743197); format: functional; conditions: OVCAR-8
[9] = IGROV1 ovarian cancer cell cytotoxicity, dose response, PAX8 inhibitor project, plate reader, dry powder samples (AID 743043); format: functional, cell-based; conditions: IGROV-1
[10] = cytotoxicity toward NIH3T3 fibroblasts, dose response, counter-screen, cell-based, ATP luminescence, mouse fibroblasts (AID 2010); format: functional;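 also: cells exposed to compound for about 90 hours before reading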
[11] = inhibitors of intracellular T. cruzi replication, confirmation, NIH3T3 host cells, beta-gal luminescence (AID 2044); format: functional, cell-based;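 also: intracellular parasites grown in NIH/3T3 mouse fibroblasts as host cells; luminescent beta-galactosidase reporter signal from transgenic T. cruzi replicating inside host cells; inhibitors lower the luminescence signal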
H4 = assay: Luminescence Cell-Based Dose Response HTS to Identify Activators of 5'UTR Stem-Loop Driven Prion Protein mRNA Translation in H4 Neuroglioblastoma Cells. [Related pubchem assays: 1829 (Project Summary), 1814 (Primary HTS)]; format: functional; conditions: Homo sapiens
Vero [12] = assay: host cell cytotoxicity of antiviral hits, dose response, cytotoxicity control for West Nile virus antiviral project, secondary assay (AID 1650); format: functional; conditions: Chlorocebus sabaeus
[13] = Luminescence Cell-Based Dose Confirmation HTS to Identify Activators of 5'UTR Stem-Loop Driven Alpha-Synuclein mRNA Translation in H4 Neuroglioblastoma Cells. [Related pubchem assays: 1829 (Project Summary), 1814 (Primary HTS)]; format: functional
[14] = Luminescence Cell-Based Dose Retest to Confirm Inhibitors of Cancer Stem Cells. [Related pubchem assays (depositor defined):AID2717, AID2721]; format: functional; conditions: Homo sapiens
[15] = Luminescence Cell-Based Dose Response HTS to Identify Activators of Luciferase Translation or Activity in H4 […] Cells. [Related pubchem assays: 1829 (Project Summary), 1814 (Primary HTS)]; format: functional
Vero [16] = assay: cells; format: functional; conditions: Chlorocebus sabaeus
[17] = target: Heat shock protein HSP 90-alpha (Homo sapiens, UniProt P07900); format: functional, organism-based
Beta-galactosidase [18] = target: T3, Beta-galactosidase; assay: Dose response counterscreen for EBI2 assay utilizing the enzyme, b-galactosidase.; format: functional
[19] = inhibitors of HIV Env-driven cell fusion, dose response, cherry-pick (AID 652057); format: functional, cell-based
[20] = ZM109 Env clade C HIV-1 fusion inhibitors, dose response, HeLa effector, CEM target cells, luciferase, cherry-pick (AID 652058); format: functional, cell-based
[21] = CEM21 lymphoblast cell cytotoxicity, dose response, cytotoxicity control for viral fusion inhibitor project, CellTiter-Glo luminescence, cherry-picked (AID 652042); format: functional, cell-based;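 also: potency for signal decrease meaning cytotoxicity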
[22] = inhibitors of clade B AD8 Env fusion, dose response, cell-based, cherry-pick (AID 652062); format: functional;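 also: luciferase signal from cell-cell fusion driven by HIV-1 clade B AD8 Env; potency is for inhibitors of fusion seen as a drop in luminescence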
[23] = off-target signal loss in HeLa-CEM21 co-culture – HeLa F-luc CTL cells, cherry-picked, counter-screen for HIV-1 Env fusion inhibitor project, dose response (AID 652040); format: functional, cell-based;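 also: potency for signal decrease marking cytotoxic or nonspecific inhibition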

T3 sequence (Q8VNN2 whole entry): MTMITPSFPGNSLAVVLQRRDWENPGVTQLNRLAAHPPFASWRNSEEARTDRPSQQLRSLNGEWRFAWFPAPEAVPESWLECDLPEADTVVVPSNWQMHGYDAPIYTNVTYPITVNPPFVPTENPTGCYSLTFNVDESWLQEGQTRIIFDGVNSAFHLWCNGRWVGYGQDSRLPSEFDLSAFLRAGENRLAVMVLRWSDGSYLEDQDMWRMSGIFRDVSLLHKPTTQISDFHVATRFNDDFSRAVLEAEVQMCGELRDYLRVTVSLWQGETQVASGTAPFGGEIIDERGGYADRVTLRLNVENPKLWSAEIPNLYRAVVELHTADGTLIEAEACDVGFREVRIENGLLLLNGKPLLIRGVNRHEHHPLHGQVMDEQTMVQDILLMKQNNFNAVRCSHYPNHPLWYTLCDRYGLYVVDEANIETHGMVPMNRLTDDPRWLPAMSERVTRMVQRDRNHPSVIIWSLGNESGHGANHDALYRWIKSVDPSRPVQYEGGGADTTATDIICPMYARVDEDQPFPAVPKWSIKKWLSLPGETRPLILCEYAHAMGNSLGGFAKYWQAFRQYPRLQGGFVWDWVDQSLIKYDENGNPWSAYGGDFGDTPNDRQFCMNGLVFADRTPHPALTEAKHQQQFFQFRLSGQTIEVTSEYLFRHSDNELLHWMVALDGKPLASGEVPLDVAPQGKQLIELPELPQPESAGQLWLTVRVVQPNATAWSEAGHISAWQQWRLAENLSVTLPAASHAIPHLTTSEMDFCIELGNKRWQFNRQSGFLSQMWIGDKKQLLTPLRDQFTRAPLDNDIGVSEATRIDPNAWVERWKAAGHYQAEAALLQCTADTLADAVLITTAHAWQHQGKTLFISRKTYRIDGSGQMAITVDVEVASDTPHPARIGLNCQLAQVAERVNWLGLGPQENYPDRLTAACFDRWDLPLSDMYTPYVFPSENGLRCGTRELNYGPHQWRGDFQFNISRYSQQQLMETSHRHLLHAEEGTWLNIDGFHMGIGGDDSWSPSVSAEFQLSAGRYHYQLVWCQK
Kallikrein-7, sequence (P49862 whole entry): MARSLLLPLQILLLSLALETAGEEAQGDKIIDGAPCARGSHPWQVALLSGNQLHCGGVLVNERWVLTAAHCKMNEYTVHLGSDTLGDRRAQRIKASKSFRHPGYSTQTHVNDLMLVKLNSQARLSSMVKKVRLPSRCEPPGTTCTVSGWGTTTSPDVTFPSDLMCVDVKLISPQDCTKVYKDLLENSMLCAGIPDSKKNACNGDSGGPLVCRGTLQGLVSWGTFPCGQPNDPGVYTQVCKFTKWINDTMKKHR
DNA dC->dU-editing enzyme APOBEC-3G, sequence (Q9HC16 whole entry): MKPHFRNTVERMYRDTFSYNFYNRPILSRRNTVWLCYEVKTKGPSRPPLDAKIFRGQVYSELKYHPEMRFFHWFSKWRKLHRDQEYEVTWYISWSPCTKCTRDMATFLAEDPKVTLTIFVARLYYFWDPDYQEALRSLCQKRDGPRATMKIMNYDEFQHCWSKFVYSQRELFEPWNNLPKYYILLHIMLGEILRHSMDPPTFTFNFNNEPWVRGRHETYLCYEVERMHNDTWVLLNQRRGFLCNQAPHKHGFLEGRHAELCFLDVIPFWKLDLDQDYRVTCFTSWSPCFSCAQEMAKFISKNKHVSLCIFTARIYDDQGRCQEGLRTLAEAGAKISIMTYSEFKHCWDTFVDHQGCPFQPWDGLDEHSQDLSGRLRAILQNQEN
Nonstructural protein 1, sequence (Q194T2 whole entry): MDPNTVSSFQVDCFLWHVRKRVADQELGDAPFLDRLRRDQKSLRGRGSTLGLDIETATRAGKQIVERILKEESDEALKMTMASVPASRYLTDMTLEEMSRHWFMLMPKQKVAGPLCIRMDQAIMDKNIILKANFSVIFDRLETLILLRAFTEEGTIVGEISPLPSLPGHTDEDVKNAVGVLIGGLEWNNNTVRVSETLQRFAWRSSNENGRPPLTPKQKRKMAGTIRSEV
DNA dC->dU-editing enzyme APOBEC-3A, sequence (P31941 whole entry): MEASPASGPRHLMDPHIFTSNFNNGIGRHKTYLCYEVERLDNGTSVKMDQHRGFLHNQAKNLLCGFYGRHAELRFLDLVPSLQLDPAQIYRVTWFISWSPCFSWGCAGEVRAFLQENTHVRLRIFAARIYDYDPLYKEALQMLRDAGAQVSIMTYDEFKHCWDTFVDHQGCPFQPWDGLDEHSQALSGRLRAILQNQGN
Cytochrome P450 2C19, sequence (P33261 whole entry): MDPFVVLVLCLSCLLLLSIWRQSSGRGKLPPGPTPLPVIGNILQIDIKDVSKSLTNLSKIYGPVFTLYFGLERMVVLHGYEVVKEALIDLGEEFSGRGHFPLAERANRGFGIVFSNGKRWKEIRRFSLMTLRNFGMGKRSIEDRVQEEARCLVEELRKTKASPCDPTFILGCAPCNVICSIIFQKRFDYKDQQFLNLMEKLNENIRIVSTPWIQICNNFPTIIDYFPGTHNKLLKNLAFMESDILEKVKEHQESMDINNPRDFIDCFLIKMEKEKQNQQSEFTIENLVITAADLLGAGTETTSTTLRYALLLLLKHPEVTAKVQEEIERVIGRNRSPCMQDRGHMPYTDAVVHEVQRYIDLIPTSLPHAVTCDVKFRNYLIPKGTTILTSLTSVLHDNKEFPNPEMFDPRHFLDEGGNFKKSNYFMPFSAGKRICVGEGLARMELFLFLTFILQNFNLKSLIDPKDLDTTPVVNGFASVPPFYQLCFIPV
Paired box protein Pax-8, sequence (Q06710 whole entry): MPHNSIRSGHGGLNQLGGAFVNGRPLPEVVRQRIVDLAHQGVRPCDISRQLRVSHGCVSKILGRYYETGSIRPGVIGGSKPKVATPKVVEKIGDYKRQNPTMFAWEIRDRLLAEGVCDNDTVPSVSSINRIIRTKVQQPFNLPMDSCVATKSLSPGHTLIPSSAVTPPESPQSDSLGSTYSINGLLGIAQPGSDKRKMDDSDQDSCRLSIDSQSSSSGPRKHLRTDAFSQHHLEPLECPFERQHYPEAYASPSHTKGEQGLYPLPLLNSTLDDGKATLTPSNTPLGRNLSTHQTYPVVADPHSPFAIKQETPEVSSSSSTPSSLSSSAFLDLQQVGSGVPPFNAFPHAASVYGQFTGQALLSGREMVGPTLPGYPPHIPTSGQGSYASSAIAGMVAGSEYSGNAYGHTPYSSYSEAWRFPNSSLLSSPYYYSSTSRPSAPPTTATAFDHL

CCN1c2ccccc2-c2nc3ccccc3n2C1c1ccccn1 (configuration not stated)
EC50 (Kallikrein-7): > 69.5 µM (inactive)

CCCCN(C(=O)c1cnccn1)c1c(N)n(CCC)c(=O)[nH]c1=O
IC50 [1]: 15.5 µM (active)
IC50 [2]: 13.7 µM (active)

CC(=O)/N=C1\C(=O)N(C)c2cccc3c(O)c4ccccc4c1c23
AC50 (Cytochrome P450 2C19): 14.1 µM (inconclusive)
IC50 (Protein Tat): > 100 µM (active)
IC50 (Aminopeptidase N): 27.9 µM (active)

Cc1ccc(N2CCN(c3ccc(C)cc3)C2c2ccccn2)cc1
IC50 (Protein Tat): > 100 µM (active)

CCN(CC)c1ccc(NC(=O)CN2CCN(CC(=O)Nc3ccccc3OC)CC2)cc1
IC50 (Nonstructural protein 1): 79.6 µM (active)

COC(=O)CC1=C(C(=O)OC)[C@@H](c2ccccc2[N+](=O)[O-])C(C#N)=C(N)O1
EC50 (Kallikrein-7): 8.2 µM (active)

O=C(c1ccco1)n1nc(-c2ccco2)nc1SCc1ccccc1
IC50 (Prothrombin): 0.201 µM (active)

CC(=NNc1ccc2ccccc2n1)c1ccccc1O
IC50 (Beta-galactosidase [3]): > 66.6 µM (inactive)

O=c1c2ccccc2nc(/C=C/c2ccc(O)cc2)n1-c1ccc(O)cc1
IC50 (H9c2): > 79 µM (inactive)
EC50 (Kallikrein-7): 21.7 µM (inactive)

Nc1nc(-c2cccnc2)nn1C(=O)Cc1ccccc1
IC50 (Prothrombin): 0.0753 µM (active)

CN(C)c1ccc(C(=S)N2CCOCC2)cc1Br
IC50 [4]: > 50 µM (not active)

CS(=O)(=O)N(CC(=O)N1CCC(C(N)=O)CC1)C1CCCCC1
IC50 [5]: > 83.3 µM (inactive)
IC50 [6]: > 109 µM (inactive)

CCn1c(SCC(=O)NCc2ccco2)nnc1-c1cccs1
IC50 (Protein Tat): > 100 µM (active)

CCOC(=O)C1CCN(S(=O)(=O)c2cccc(-c3cn4cccnc4n3)c2)CC1
EC50 (Kallikrein-7): > 69.5 µM (inactive)

CC(C)C1Oc2ccccc2N(CC(=O)N(Cc2ccccn2)C2CC2)C1=O (configuration not stated)
IC50 [5]: > 83.3 µM (inactive)
IC50 [6]: > 109 µM (inactive)

C[C@H]1CCCCO[C@@H](CN(C)S(=O)(=O)c2ccccc2)[C@@H](C)CN([C@@H](C)CO)C(=O)c2cc(NC(=O)Nc3ccc(C(F)(F)F)cc3)ccc2O1
AC50 (Paired box protein Pax-8): 6.6 µM (active)
AC50 [7]: 19.4 µM (active)
AC50 [8]: 52.4 µM (active)
AC50 [9]: 53.1 µM (active)

COc1ccc(-n2nc([N+](=O)[O-])c(NCCC3=CCCCC3)[n+]2[O-])cc1
EC50 [10]: > 60 µM (not active)
IC50 (Nonstructural protein 1): 41.3 µM (active)
EC50 [11]: 0.534 µM (active)

Cn1nnnc1SCC(=O)Nc1ccc(Br)cc1Cl
IC50 [1]: 9.75 µM (active)
IC50 [2]: 5.35 µM (active)

CC(O)C(=O)N/N=C/c1cccc2ccccc12 (configuration not stated)
IC50 (Prothrombin): 48.8 µM (active)

CC1=NN(c2ccccc2)C(=O)/C1=C\C=C\c1ccccc1
EC50 (H4): > 120 µM (not active)
CC50 (Vero [12]): 26.8 µM (active)
EC50 [13]: > 120 µM (not active)
AC50 [14]: 4.82 µM (active)
EC50 [15]: 27.3 µM (active)
CC50 (Vero [16]): 12.1 µM (active)

NCCCN1CCOCC1
IC50 [5]: > 83.4 µM (inactive)
IC50 [6]: > 109 µM (inactive)

O=C1NCC(COCc2ccco2)O1 (configuration not stated)
IC50 (Prothrombin): > 50 µM (not active)

COc1ccc(C(=O)/C=C2\C(=O)Nc3ccc(Br)cc32)cc1
AC50 [17]: 1.59 µM (active)
IC50 (Beta-galactosidase [18]): 71.6 µM (inactive)
CC50 (Vero [16]): 14.9 µM (active)

CCCCn1c(N)c(C(=S)NC(=O)CC(C)C)c(=O)n(C)c1=O
IC50 (Beta-galactosidase [3]): > 66.6 µM (inactive)

COc1ccc(N2CCN(C(=O)c3cc(=O)c4cc(C)cc(C)c4o3)CC2)cc1
IC50 (Beta-galactosidase [18]): > 80 µM (inactive)

CCN(CC(=O)Nc1c(F)cccc1F)C(=O)/C=C/c1ccc(C)cc1
IC50 (Beta-galactosidase [18]): > 80 µM (inactive)

Cc1oc(-c2cccc(Cl)c2)nc1CN1CCCC(C(=O)NC(C)c2ccc3c(c2)OCCO3)C1 (configuration not stated)
AC50 [19]: 2.58 µM (active)
AC50 [20]: 3.47 µM (active)
AC50 [21]: 54.5 µM (active)
AC50 [22]: 4.68 µM (active)
AC50 [23]: 3.92 µM (active)

O=C(NC(=S)N(CCc1ccccc1)CCc1ccccc1)c1ccco1
IC50 (Beta-galactosidase [3]): > 66.6 µM (inactive)
